Test results from patent US20240082345A1, “PEPTIDE COMPOSITION FOR PREVENTION OR TREATMENT OF ALZHEIMER'S DISEASE” (priority 2020, published 2024).
Each block holds one molecule with its values, some of them ahead of it. Non-standard residues stand in square brackets, D forms with d. Residues, ends and D or L forms follow the SMILES beside them.

How the values were obtained:
5XFAD mice [1] = experiment: LPS-induced neuroinflammation in brains of 5XFAD Alzheimer's dementia mice, Iba-1 immunohistochemical staining; format: in vivo, mouse; conditions: 3-month-old 5XFAD mice, single dose 10 mg/kg + LPS 3 mg/kg, 48 hours, vs LPS+vehicle (FIG. 5B)
Description: Since LPS causes different degrees of inflammatory response depending on the strain of animals to be administered, LPS origin and the like, the animals were co-administered a single dose of 3 mg/kg of LPS and 10 mg/kg of DD-5052, and then sacrificed 48 hours later, 5XFAD mice were treated with 3 mg/kg of LPS by referencing a document which confirms the mortality rate by treating 5XFAD mice with 3 mg/kg of LPS (Barton, S. M.; Janve, V. A.; McClure, R.; Anderson, A.; Matsubara, J. A.; Gore, J. C.; Pham, W., Lipopolysaccharide Induced Opening of the Blood Brain Barrier on Aging 5XFAD Mouse Model. J Alzheimers Dis 2019, 67, (2), 503-513.) and a document which confirms that microgliosis reaches its maximum value from day 2 after the administration of LPS (Kondo, S.; Kohsaka, S.; Okabe, S., Long-term changes of spine dynamics and microglia after transient peripheral immune response triggered by LPS in vivo. […] 48 hours after administration of LPS and DD-5052, mouse brains were removed by cardiac perfusion fixation (4% PFA). Thereafter, the removed mouse brain was secondarily fixed in 4% PFA for 20 hours, and then immersed in a 30% sucrose solution. Subsequently, the mouse brains were frozen and sliced into a thickness of 30

wild-type mice = experiment: LPS-induced neuroinflammation (microgliosis) in brains of wild-type mice, Iba-1 immunohistochemical staining; format: in vivo, mouse
Description: Sections were incubated in 1% H2O2 for 15 minutes, and then put into a solution in which a mouse […] was diluted 1:400, and incubated at 4° C. overnight. After incubation with a biotinylated secondary antibody (diluted 1:200, Vector Laboratories, Inc., Burlingame, CA, USA) at room temperature for 1 hour, the sections were incubated with an avidin-biotin-peroxidase complex (diluted 1:100, vector) for 1 hour. Thereafter, 0.02% 3,3′-diaminobenzidine and 0.01% H2O2 were reacted for about 3 minutes. After each incubation stage, the sections were washed three times with PBS. Finally, the sections were mounted on gelatin-coated slides, and dehydrated while increasing an alcohol concentration and cleared in xylene.
Experiments were designed as illustrated in FIG. 4A to confirm microglia in the brains of wild-type mice, and immunohistochemical staining was performed using a goat-anti Iba-1 antibody (Ab5076,1:500) against Iba-1 which is a marker for microglia. Three-month-old wild-type mice were intraperitoneally injected (i.p.) with LPS (30 mg/kg/day)+vehicle (Hartmann dex) or DD-S052 (30 mg/kg/day)+LPS (30 mg/kg/day), and sacrificed 6 hours after the last injection of LPS. In this case, LPS and DD-S052 were loaded in separate syringes and injected separately into the right and left abdomen, respectively, and LPS was administered, and then DD-S052 was administered approximately 1 minute later. The half-life of LPS in mouse blood was approximately 2 to 4 minutes. 6 hours after administration of LPS and DD-S052, mouse brains were removed by cardiac perfusion fixation (4% PFA). Thereafter, the removed mouse brain was secondarily fixed in 4% PFA for 20 hours, and then immersed in a 30% sucrose solution. Subsequently, the mouse brains were frozen and sliced into a thickness of 30 μm.
Thereafter, immunohistochemical staining for Iba-1 was performed by the method described in Example 1-2 in order to confirm microglia in the mouse hippocampus, and the results are shown in FIG. 4B.
Microglia were confirmed in the substantia nigra pars compacta (SNc) by performing immunohistochemical staining for Iba-1. Wild-type mice were treated with LPS and DD-5052 in the same manner as in Example 5-1.

[2] = Artificial membrane permeation test simulating the blood-brain barrier (PAMPA-096), LC-MS / ESI-FT-ICR-MS; format: in vitro ADME; conditions: for MS peak intensity, Before / LogPe: 100 μg/ml peptide; for LogPe: 18 hr, room temperature, PBS; for MS peak intensity, Acceptor / MS peak intensity, Donor: after 18 hr
Description: In order to confirm whether the peptide DD-S052 of the present invention passes through the blood-brain barrier (BBB), an artificial membrane permeation test simulating the blood-brain barrier was performed using a parallel artificial membrane permeability assay kit (PAMPA-096; BioAssay Systems).
Analysis conditions are shown in the following Table 5, and analysis was performed by liquid chromatography-mass spectrometry (LC-MS).
Quantitative analysis was performed using electrospray ionization coupled to Fourier transform ion cyclotron resonance mass spectrometry (ESI-FT-ICR-MS), and the analysis conditions are shown in the following Table 6.
The intensity value of a peak corresponding to the test material was used according to the Log Pe function described in an existing document (Evaluation of the reproducibility of Parallel Artificial Membrane Permeation Assays PAMPA, Sigma Aldrich), and the value calculated by the Log Pe function was used to predict the degree of permeation by referencing an existing document (Brian. J et al. Predicting a Drug's Membrane Permeability: A Computational Model Validated With in Vitro Permeability Assay Data. J Phys Chem B. 2017 May 25;121(20):5228-5237).

[3] = tested on: LPS-treated BV-2 cells (microglial cell line); experiment: LPS-mediated cytokine production in BV-2 cells (qRT-PCR); format: cell-based; conditions: 20 ng/ml peptide + 2 ng/ml LPS co-treatment, 6 hours, vs LPS-treated cells (FIG. 3)
Description: Microglial cell line BV-2 cells were co-treated with 20 ng/ml of peptide (DD-5052) according to the invention and 2 ng/ml of LPS and cultured for 6 hours. Subsequently, the mRNA expression levels of proinflammatory cytokines IL-1(3 and TNF-α were measured using quantitative real-time polymerase chain reaction (PCR).
Specifically, total RNA was extracted from BV-2 cells using an RNA purification kit (Gene All, Seoul, Korea) according to the manufacturer's protocol. cDNA was synthesized using the Revert Aid First Strand cDNA Synthesis Kit (Thermo Scientific, Waltham, MA, USA) and qRT-PCR analysis was performed using the SYBR Green PCR Master Mix (Thermo Scientific, Waltham, MA, USA). The gene-specific primer sequences for IL-1(3 and TNF-α are shown in the following Table 4, and the mRNA levels of IL-1(3 and TNF-α were calculated relative to the control sample amount.

5XFAD mice [4] = experiment: Cognitive function experiment (spontaneous alternation, total arm entry) in 5XFAD mice; format: in vivo, mouse; conditions: 5.5-month-old 5XFAD mice, 2 mg/kg i.p. every other day for 4 weeks
Description: (§1) Then, cognitive function experiments were performed on each mouse, and then the mouse brain was fixed by cardiac perfusion fixation. Thereafter, the removed mouse brain was secondarily fixed in a 4% PFA solution for 20 hours, and then immersed in a 30% sucrose solution. Subsequently, the mouse brains were frozen and sliced into a thickness of 30 μm.
The cognitive function experiment is a novel experiment based on the instinctive behavior of rodents with the will to explore new environments, and is an experiment to evaluate the spatial perception ability of mice to choose a path different from the one which mice chose immediately before in a maze, and scores are given by dividing spontaneous alternation (the ratio of choosing a different path from the path chosen immediately before) by the total number of passages passed (total arm entry). The total arm entry during the experiment becomes an index to evaluate whether all groups have similar motility and whether the experiment is performed normally, apart from spatial perception ability.

tau K18 = biological target: T1, tau K18 (Homo sapiens, UniProt P10636); experiment: Thioflavin T (ThT) assay of tau aggregation; format: biochemical; conditions: 0.5 mg/mL tau K18, 0.1 mg/mL heparin, DTT, PBS pH 7.4, 21 hours incubation; 10-1000 μg/mL (FIG. 7)
T1 construct: 0.5 mg/mL tau K18, 0.1 mg/mL heparin
Description: Thioflavin T (ThT) assay was performed to investigate the effect of DD-S052 and PEGylated DD-S052 on tau aggregation. ThT is known to bind to (3-sheet-rich protein aggregates to produce fluorescence. Synthetic tau K18 was dissolved in PBS (pH 7.4) in order to induce tau aggregation. The polymerization of tau proteins was induced by preparing a solution including PBS (pH 7.4), 0.5 mg/mL tau K18, 0.1 mg/mL heparin and 100 ρ, M DTT. DD-5052 at various concentrations (10, 20, 40, 100, and 1000 μg/mL), a 100 ρ, M methylene blue (MB) solution (positive control), and PEGylated DD-5052 were incubated together with an aggregation mixture for 21 hours. After incubation, a ThT solution (15 ρ, M in a 50 mM glycine buffer, pH 8.9) was added to a 96-well plate containing the sample and the aggregation mixture, and the resulting mixture was incubated for 3 hours. The fluorescence intensity of ThT was measured using a SpectraMax iD3 Multi-Mode Microplate Reader (Molecular Devices, San Jose, CA, USA) at excitation and emission wavelengths of 440 and 484 nm and quantified.

5XFAD mice [5] = experiment: Alzheimer's dementia-related pathology in 5XFAD mice, immunofluorescence staining (4G8, Iba-1, NeuN); format: in vivo, mouse
Description: as §1
The effects of DD-S052 on beta-amyloid accumulation, microgliosis, and neuronal loss were confirmed using an immunofluorescence staining method.
Specifically, in the case of immunofluorescence labeling, 4 to 5 coronal sections were obtained at subventricular zone (1.18 and 0.02 mm from bregma) and hippocampal formation (−1.58 and −3.80 mm from bregma) levels based on Paxinos and Franklin's “The Mouse Brain in Stereotaxic Coordinates.” Brain tissue was washed with PBS using the free-floating method in a Titramax 101 orbital shaker (Heidolph, Schwabach, Germany) and sections were incubated with PBS including 0.3% Triton X-100, 0.5 mg/mL bovine serum albumin (BSA) and primary antibodies as follows at 4° C. overnight: mouse anti-4G8 antibody (1:2,000; Cat. #800701, BioLegend, USA), mouse anti-NeuN antibody (1:100; Cat. #MAB377, Merck KGaA, Darmstadt, Germany), and goat anti-Iba-1 antibody (1:500; Cat. #ab5076, Abcam, Cambridge, UK).
Before being incubated with the anti-4G8 antibody, brain sections were incubated with 70% formic acid for antigen retrieval for 20 minutes, washed three times with PBS for 5 minutes each, and then incubated with a secondary antibody at room temperature for 50 minutes, and fluorescence signals were observed. As the secondary antibodies, the following antibodies were used: donkey Alexa 488-conjugated anti-mouse IgG (1:200; Cat. #A21202, Thermo Fisher Scientific Inc.), donkey Alexa 488-conjugated anti-goat IgG (1:200; Cat. #A11055, Thermo Fisher Scientific Inc.), and donkey Alexa 594-conjugated anti-rat IgG (1:200; Cat. #A21209, Thermo Fisher Scientific Inc.). All antibodies were diluted with PBS including 0.3% Triton X-100.

T1 sequence (P10636 561-685 limits assumed): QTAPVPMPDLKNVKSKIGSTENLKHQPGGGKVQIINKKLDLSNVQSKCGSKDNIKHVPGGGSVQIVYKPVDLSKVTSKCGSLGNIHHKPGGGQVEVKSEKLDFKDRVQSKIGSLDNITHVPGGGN

Molecule: CC(C)C[C@@H](NC(=O)[C@H](N)CCCCN)C(=O)N[C@H](CCCNC(=N)N)C(=O)N[C@@H](C(=O)N[C@H](CCCCN)C(=O)N[C@H](CC(C)C)C(=O)N[C@H](CCCNC(=N)N)C(=O)N[C@H](CCCNC(=N)N)C(=O)N[C@H](Cc1ccc(O)cc1)C(=O)N[C@H](CC(C)C)C(=O)N[C@H](CCCNC(=N)N)C(N)=O)C(C)C [DD-S052, KLRVKLRRYLR-NH2 (AcOH)] (H-[dK][dL][dR][dV][dK][dL][dR][dR][dY][dL][dR]-NH2; N-terminus assumed)
Iba-1(+) microglia in cerebral cortex and hippocampus (5XFAD mice [1]): decreased | microglial morphology in hippocampus (wild-type mice; 3-month-old wild-type mice, 30 mg/kg/day i.p. + LPS 30 mg/kg/day i.p., 6 hours after last LPS (FIG. 4B)): tendency to change from an amoeboid shape to a ramified shape | number of Iba-1-positive cells in hippocampus (wild-type mice; 3-month-old wild-type mice, 30 mg/kg/day i.p. + LPS 30 mg/kg/day, vs LPS+vehicle (Hartmann dex), p<0.001 (FIG. 4C)): remarkably decreased | microglial morphology in substantia nigra pars compacta (SNc) (wild-type mice; wild-type mice, 30 mg/kg/day i.p. + LPS 30 mg/kg/day (FIG. 4D)): tendency to change from an amoeboid shape to a ramified shape | Iba-1(+) microglia in the SNc (wild-type mice; wild-type mice, 30 mg/kg/day i.p. + LPS 30 mg/kg/day, vs LPS+vehicle (FIG. 4D)): tended to decrease | MS peak intensity, Before ([2]; peak at 375 m/z): 1829478400 | LogPe ([2]; peak at 375 m/z): −5.405 | MS peak intensity, Acceptor ([2]; peak at 375 m/z): 717305173 | MS peak intensity, Donor ([2]; peak at 375 m/z): 909677952 | MS peak intensity, Before ([2]; peak at 512 m/z): 1667509760 | LogPe ([2]; peak at 512 m/z): −5.362 | MS peak intensity, Acceptor ([2]; peak at 512 m/z): 717488192 | MS peak intensity, Donor ([2]; peak at 512 m/z): 867968256 | mRNA expression of IL-1(3 induced by LPS) [3]: suppressed | mRNA expression of TNF-α induced by LPS [3]: suppressed | total arm entry (5XFAD mice [4]; 8-minute session, vs vehicle-treated 5XFAD, no significance between groups): increased | spontaneous alternation (5XFAD mice [4]; vs vehicle-treated 5XFAD (FIG. 6B)): increased | fluorescence intensity of thioflavin T (ThT) (tau K18 aggregation) (tau K18): reduced | number of NeuN(+) cells (neuronal loss) (5XFAD mice [5]; 2 mg/kg i.p. every other day for 4 weeks): increased | 4G8(+) region (beta-amyloid accumulation) (5XFAD mice [5]; 2 mg/kg i.p. every other day for 4 weeks (FIG. 6C)): reduced | number of Iba-1(+) cells (microgliosis) (5XFAD mice [5]; 2 mg/kg i.p. every other day for 4 weeks (FIG. 6D)): reduced

fluorescence intensity of thioflavin T (ThT) (tau K18 aggregation) (tau K18): reduced
Molecule: EG-KLRVKLRRYLR-NH2 (AcOH) (not fully specified; N-terminal PEG, C-terminal amide, acetate salt; DD-S052P; BINDING (11) amine group (NH2) is added to C-terminus of polypeptide.; SITE (9) trifluoroacetic acid (TFA) at a terminus of the 9th amino acid from the N terminus of a peptide is substituted with an acetate salt.; SITE (1) peptide N-terminus PEGylation)
